Laboratory results taken from ChEMBL document CHEMBL1142911, “Design and synthesis of pyridine-pyrazolopyridine-based inhibitors of protein kinase B/Akt” (Bioorg Med Chem, 2007).

Legend:
[1] = biological target: cAMP-dependent protein kinase (PKA) (Homo sapiens, UniProt P22694+P17612+P22612); assay: Inhibition of PKA; format: protein assay
MIA PaCa-2 = assay: Antiproliferative activity against MIA PaCa cells by MTT assay; format: functional, cell-based; settings: Homo sapiens

| SMILES | IC50 [1] | EC50 (MIA PaCa-2) |
| --- | --- | --- |
| Cc1n[nH]c2cnc(-c3cncc(OC[C@@H](N)Cc4c[nH]c5ccccc45)c3)cc12 | 15 nM | 41 nM |
| N[C@H](COc1cncc(-c2ccc3[nH]nc(C(F)(F)F)c3c2)c1)Cc1c[nH]c2ccccc12 | 16 nM | 1290 nM |
| N[C@H](COc1cncc(-c2cc3c(-c4ccco4)n[nH]c3cn2)c1)Cc1ccccc1 | 274 nM | 1200 nM |
| C=Cc1n[nH]c2cnc(-c3cncc(OC[C@@H](N)Cc4ccccc4)c3)cc12 | 32 nM | 660 nM |
| N[C@H](COc1cncc(-c2cc3cn[nH]c3cn2)c1)Cc1ccccc1 | – | 1690 nM |
| Nc1cc2[nH]nc(Cl)c2cc1-c1cncc(OC[C@@H](N)Cc2c[nH]c3ccccc23)c1 | 58 nM | 330 nM |
| N[C@H](COc1cncc(-c2cc3cn[nH]c3cn2)c1)Cc1c[nH]c2ccccc12 | – | 1160 nM |
| N[C@H](COc1cncc(-c2cc3c(Cl)n[nH]c3cn2)c1)Cc1ccccc1 | 46 nM | – |
| N[C@H](COc1cncc(-c2cc3cn[nH]c3cc2[N+](=O)[O-])c1)Cc1c[nH]c2ccccc12 | – | 2940 nM |
| N[C@H](COc1cncc(-c2ccc3[nH]nc(Cl)c3c2)c1)Cc1c[nH]c2ccccc12 | 6.8 nM | 380 nM |
| Cc1n[nH]c2cnc(-c3cncc(OC[C@@H](N)Cc4ccccc4)c3)cc12 | 32 nM | 680 nM |
| N[C@H](COc1cncc(-c2cc3c(-c4ccccc4)n[nH]c3cn2)c1)Cc1ccccc1 | 371 nM | 584 nM |
| N[C@H](COc1cncc(-c2ccc3[nH]ncc3c2)c1)Cc1c[nH]c2ccccc12 | – | 820 nM |
